{"source": "patent US20060281763A1", "about": "“Carboxamide inhibitors of TGFbeta” (priority 2005, published 2006)", "target": "T1, TGFβ R1 (Homo sapiens, UniProt P36897)", "T1 sequence (P36897 34-503)": "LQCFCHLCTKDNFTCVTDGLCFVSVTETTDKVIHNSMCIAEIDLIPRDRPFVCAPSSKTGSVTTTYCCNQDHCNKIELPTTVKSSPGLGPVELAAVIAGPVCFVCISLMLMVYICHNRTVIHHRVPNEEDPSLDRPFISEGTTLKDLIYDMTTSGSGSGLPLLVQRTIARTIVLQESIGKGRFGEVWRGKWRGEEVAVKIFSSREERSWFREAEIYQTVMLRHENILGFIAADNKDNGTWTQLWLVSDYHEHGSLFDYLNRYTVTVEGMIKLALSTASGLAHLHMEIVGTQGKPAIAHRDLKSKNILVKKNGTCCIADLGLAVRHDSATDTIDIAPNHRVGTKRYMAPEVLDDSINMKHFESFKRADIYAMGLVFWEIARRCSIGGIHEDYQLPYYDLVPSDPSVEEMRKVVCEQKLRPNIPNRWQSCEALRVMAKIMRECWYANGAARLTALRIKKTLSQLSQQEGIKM", "assay": "TGFβ R1 autophosphorylation protocol (33P-ATP, phosphocellulose filter plate)", "type": "biochemical", "settings": "10 uM ATP, read-out: IC50 for Kinase Inhibition", "method_in_brief": "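Radiometric autophosphorylation: 170 nM enzyme with compound (≤1% DMSO), 10 uM ATP plus γ-33P-ATP, […] in 20 mM MOPS pH 7, 20 min at room temperature. Reaction stopped on phosphocellulose filter, washed with H3PO4 and ethanol, counted by scintillation.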", "key": {"[1]": {"settings": "170 nM TGFβ R1, 20 minutes at room temperature"}}, "note": "Like-named read-outs stand apart in the source and are kept apart here.", "data": [{"smiles": "COc1cnc(-c2cc(Cl)ccc2F)nc1Nc1ccncc1C(=O)NCC1(O)CCCCC1", "note": "[Compound 61, 4-[2-(5-Chloro-2-fluoro-phenyl)-5-methoxy-pyrimidin-4-ylamino]-N-(1-hydroxy-cyclohexylmethyl)-nicotinamide]", "values": [{"measurement": "IC50", "setting": "[1]", "result": 11800, "unit": "nM"}]}, {"smiles": "O=C(NCCN1CCCC1)c1cnccc1Nc1nc(-c2cc(Cl)ccc2F)ncc1N1CCCC1", "note": "[Compound 26, 4-[2-(5-Chloro-2-fluoro-phenyl)-5-pyrrolidin-1-yl-pyrimidin-4-ylamino]-N-(2-pyrrolidin-1-yl-ethyl)-nicotinamide]", "values": [{"measurement": "IC50", "setting": "[1]", "result": 200, "unit": "nM"}]}, {"smiles": "CCOP(=O)(OCC)O[C@@H](C)CNC(=O)c1cnccc1Nc1nc(-c2cc(Cl)ccc2F)ncc1OC", "note": "[Compound 121, Phosphoric acid 2-({4-[2-(5-chloro-2-fluoro-phenyl)-5-methoxy-pyrimidin-4-ylamino]-pyridine-3-carbonyl}-amino)-1-methyl-ethyl ester diethyl ester]", "values": [{"measurement": "IC50", "setting": "[1]", "result": 5770, "unit": "nM"}]}, {"smiles": "COc1cnc(-c2cc(Cl)ccc2F)nc1Nc1ccncc1C(=O)NCCNCC(C)(C)O", "note": "[Compound 112, 4-[2-(5-Chloro-2-fluoro-phenyl)-5-methoxy-pyrimidin-4-ylamino]-N-[2-(2-hydroxy-2-methyl-propylamino)-ethyl]-nicotinamide]", "values": [{"measurement": "IC50", "setting": "[1]", "result": 90, "unit": "nM"}]}, {"smiles": "CNC(=O)[C@@H]1CCCCN1CCCNC(=O)c1cnccc1Nc1nc(-c2cc(Cl)ccc2F)ncc1C(C)C", "note": "[Compound 184, 4-[2-(5-Chloro-2-fluoro-phenyl)-5-isopropyl-pyrimidin-4-ylamino]-N-[3-(2-methylcarbamoyl-piperidin-1-yl)-propyl}-nicotinamide]", "values": [{"measurement": "IC50", "setting": "170 nM TGFβ R1, room temperature 20 minutes", "result": 12, "unit": "nM"}]}]}
